Test results as given in ChEMBL document CHEMBL3045482, “Synthesis, crystal structure, in vitro acetohydroxyacid synthase inhibition, in vivo herbicidal activity, and 3D-QSAR of new asymmetric aryl disulfides” (J Agric Food Chem, 2012).

Assays:
[1] = test system: Brassica rapa subsp. oleifera; assay: Herbicidal activity against Brassica rapa subsp. oleifera assessed as Brassica rapa subsp. oleifera root growth inhibition at 100 mg/L; format: functional; details: read-out: GI
[2] = target: T1, Acetolactate synthase, chloroplastic (Arabidopsis thaliana, UniProt P17597)
T1 sequence (P17597 whole entry): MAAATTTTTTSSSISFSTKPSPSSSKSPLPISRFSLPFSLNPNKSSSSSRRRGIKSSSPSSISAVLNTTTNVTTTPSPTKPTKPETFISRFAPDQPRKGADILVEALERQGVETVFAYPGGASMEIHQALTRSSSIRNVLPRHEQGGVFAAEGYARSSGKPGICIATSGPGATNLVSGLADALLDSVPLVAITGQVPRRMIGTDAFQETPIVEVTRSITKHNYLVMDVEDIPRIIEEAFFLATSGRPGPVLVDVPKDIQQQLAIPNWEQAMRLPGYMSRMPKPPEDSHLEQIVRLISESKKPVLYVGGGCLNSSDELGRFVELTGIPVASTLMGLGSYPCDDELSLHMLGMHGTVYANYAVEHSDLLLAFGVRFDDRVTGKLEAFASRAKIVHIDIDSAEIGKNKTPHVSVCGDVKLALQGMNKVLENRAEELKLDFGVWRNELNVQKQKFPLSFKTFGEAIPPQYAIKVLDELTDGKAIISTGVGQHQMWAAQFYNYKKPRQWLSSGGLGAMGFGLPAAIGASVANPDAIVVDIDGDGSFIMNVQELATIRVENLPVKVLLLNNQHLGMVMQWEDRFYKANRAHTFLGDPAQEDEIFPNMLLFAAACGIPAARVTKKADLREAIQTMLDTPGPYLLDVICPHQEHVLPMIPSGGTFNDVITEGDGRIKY
Description: Inhibition of wild type Arabidopsis thaliana acetohydroxyacid synthase colorimetric assay

[3] = target: Acetolactate synthase, chloroplastic (Arabidopsis thaliana, UniProt P17597, W574L)

Structure (SMILES)	inhibition of growth at 100 µg/mL [1]	Ki [2]	Ki [3]
COc1ccc(SSc2nc[nH]n2)cc1	44.6%	–	–
Cc1nc(SSc2ccccc2)n[nH]1	69.4%	–	–
Cc1ccc(SSc2n[nH]c(C)n2)cc1	62.5%	–	–
COC(=O)c1ccccc1SSc1n[nH]c(C)n1	10.6%	–	–
CCOC(=O)c1ccccc1SSc1n[nH]c(C)n1	26.6%	–	–
Cc1nc(SSc2ccccc2[N+](=O)[O-])n[nH]1	59.6%	5.57 µM	27.1 µM
COc1ccc(SSc2n[nH]c(C)n2)cc1	28.3%	–	–
Cc1nc(SSc2ccc(Cl)cc2)n[nH]1	24.1%	–	–
Cc1nc(SSc2ccc(Br)cc2)n[nH]1	17.6%	–	–
Cc1nc(SSc2ccccc2F)n[nH]1	13%	–	–
Cc1nc(SSc2ccccc2C)n[nH]1	36.8%	–	–
Cc1nc(SSc2ccc3ccccc3c2)n[nH]1	0%	–	–
c1ccc(SSc2n[nH]c(-c3ccccc3)n2)cc1	81.7%	–	–
Cc1ccc(SSc2n[nH]c(-c3ccccc3)n2)cc1	87.5%	–	–
COC(=O)c1ccccc1SSc1n[nH]c(-c2ccccc2)n1	52.8%	–	–
CCOC(=O)c1ccccc1SSc1n[nH]c(-c2ccccc2)n1	34.3%	–	–
O=[N+]([O-])c1ccccc1SSc1n[nH]c(-c2ccccc2)n1	0%	–	–
COc1ccc(SSc2n[nH]c(-c3ccccc3)n2)cc1	29.4%	–	–
Clc1ccc(SSc2n[nH]c(-c3ccccc3)n2)cc1	37.5%	–	–
Cc1ccc(-c2nc(SSc3ccccc3)n[nH]2)cc1	54.1%	–	–
Cc1ccc(SSc2n[nH]c(-c3ccc(C)cc3)n2)cc1	0%	–	–
COC(=O)c1ccccc1SSc1n[nH]c(-c2ccc(C)cc2)n1	44.9%	–	–
CCOC(=O)c1ccccc1SSc1n[nH]c(-c2ccc(C)cc2)n1	0%	–	–
Cc1ccc(-c2nc(SSc3ccccc3[N+](=O)[O-])n[nH]2)cc1	0%	–	–
COc1ccc(SSc2n[nH]c(-c3ccc(C)cc3)n2)cc1	11%	–	–
Cc1ccc(-c2nc(SSc3ccc(Cl)cc3)n[nH]2)cc1	24.1%	–	–

Structure (SMILES)	inhibition of growth at 100 µg/mL [1]	Ki [2]	Ki [3]
c1ccc(SSc2n[nH]c(-c3ccncc3)n2)cc1	70.2%	–	–
Cc1ccc(SSc2n[nH]c(-c3ccncc3)n2)cc1	6.9%	–	–
COC(=O)c1ccccc1SSc1n[nH]c(-c2ccncc2)n1	30.5%	–	–
CCOC(=O)c1ccccc1SSc1n[nH]c(-c2ccncc2)n1	0%	–	–
O=[N+]([O-])c1ccccc1SSc1n[nH]c(-c2ccncc2)n1	0%	–	–
COc1ccc(SSc2n[nH]c(-c3ccncc3)n2)cc1	0%	–	–
Clc1ccc(SSc2n[nH]c(-c3ccncc3)n2)cc1	0%	–	–
c1ccc(SSc2n[nH]c(-c3cccnc3)n2)cc1	66.2%	–	–
Cc1ccc(SSc2n[nH]c(-c3cccnc3)n2)cc1	0%	–	–
COC(=O)c1ccccc1SSc1n[nH]c(-c2cccnc2)n1	0%	–	–
CCOC(=O)c1ccccc1SSc1n[nH]c(-c2cccnc2)n1	0%	–	–
O=[N+]([O-])c1ccccc1SSc1n[nH]c(-c2cccnc2)n1	27.4%	–	–
COc1ccc(SSc2n[nH]c(-c3cccnc3)n2)cc1	14.3%	–	–
Clc1ccc(SSc2n[nH]c(-c3cccnc3)n2)cc1	0%	–	–
c1ccc(SSc2nc[nH]n2)cc1	86.6%	–	–
Cc1ccc(SSc2nc[nH]n2)cc1	67.5%	4.69 µM	25.7 µM
COC(=O)c1ccccc1SSc1nc[nH]n1	54.8%	–	–
CCOC(=O)c1ccccc1SSc1nc[nH]n1	21.1%	–	–
O=[N+]([O-])c1ccccc1SSc1nc[nH]n1	69.8%	–	–
Clc1ccc(SSc2nc[nH]n2)cc1	50.2%	–	–
Brc1ccc(SSc2nc[nH]n2)cc1	27.4%	–	–
Fc1ccccc1SSc1nc[nH]n1	47.2%	–	–
Cc1ccccc1SSc1nc[nH]n1	43.6%	–	–
c1ccc2cc(SSc3nc[nH]n3)ccc2c1	16.3%	–	–
CC(C)C1(C)N=C(c2nc3ccccc3cc2C(=O)O)NC1=O (stereo not drawn) [IMAZAQUIN]	–	–	470 µM
COC(=O)c1ccccc1S(=O)(=O)NC(=O)Nc1nccc(C)n1 [MONOSULFURON ESTER]	88.5%	0.26 µM	8.53 µM
